Legend:
[1] = biological target: EIF2AK3 (PERK) catalytic domain (amino acids 536-1116) (Homo sapiens (Human), UniProt Q9NZJ5); assay: PERK in vitro activity assay (isolated), TR-FRET kinase assay; details: isolated PERK enzyme, 1.5 μM ATP, GFP-eIF2a substrate; read-out: Biochemical IC50
Excerpt: PERK In Vitro Activity Assay (Isolated):
In vitro Inhibition of PERK Enzyme Activity (isolated) Recombinant human EIF2AK2 (PKR) catalytic domain (amino acids 252-551), EIF2AK3 (PERK) catalytic domain (amino acids 536-1116), GFP-eIF2a substrate, and Terbium-labelled phospho-eIF2a antibody is obtained (Invitrogen, Carlsbad, CA).
Express and purify HIS-SUMO-GCN2 catalytic domain (amino acids 584-1019) from E. coli. Perform TR-FRET kinase assays in the absence or presence of inhibitors in a reaction buffer consisting of 50 mM HEPES, pH 7.5, 10 mM MgCb, 1.0 mM EGTA, and 0.01% Brij-35, and 100-200 nM GFP-eIF2a substrate. […] Add test compound, initiate the reaction by addition of enzyme, and incubate at room temperature for 45 minutes. Stop the reaction by addition of EDTA to a final concentration of 10 mM, add Terbium-labelled phospho-eIF2a antibody at a final concentration of 2 nM, and incubate for 90 minutes. Monitor the resulting fluorescence in an EnVison® Multilabel reader (PerkinElmer, Waltham, MA). Determine TR-FRET ratios and the resulting IC50 values using a 4-parameter nonlinear logistic equation as shown: Y=(A+((B−A)/(1+((C/x)[…])))) where, Y=% specific inhibition, A=Bottom of the curve, B=Top of the curve, C=absolute IC50 (concentration causing 50% inhibition), and D=hill slope.

PERK = PERK (Homo sapiens (Human), UniProt Q9NZJ5); assay: PERK cellular assay (TR-FRET, HEK293-EGFP-eIF2α cells, tunicamycin-induced ER stress); format: cell-based; details: tunicamycin 2 hours, read-out: Cellular IC50 (μM) (EIF2a)
Experimental: Stable cell lines were created in HEK293 cells using lentiviral particles harboring an expression vector for GFP-eIF2α. Cells were selected using puromycin and enriched using fluorescence activated cell sorting against GFP. HEK293-EGFP-eIF2α cells were plated at 5000 cells/well in 384-well assay plates and incubated overnight at 37° C., 5% CO2. Inhibitor compounds were added to the wells by Echo acoustic dispensing and incubated for 30 minutes at 37° C., 5% CO2 prior to induction of ER stress by addition of tunicamycin to […] for 2 hours. Cells were lysed and TR-FRET was measured in an EnVision plate reader (PerkinElmer). FRET ratio data was normalized to signal from lysates treated with DMSO vehicle control and plotted as percent inhibition against 10-point; 3-fold dilution series of inhibitors. IC50 values were calculated using 4-parameter logistical fitting in XLFit.

Sequence of EIF2AK3 (PERK) catalytic domain (amino acids 536-1116) (Q9NZJ5 536-1116): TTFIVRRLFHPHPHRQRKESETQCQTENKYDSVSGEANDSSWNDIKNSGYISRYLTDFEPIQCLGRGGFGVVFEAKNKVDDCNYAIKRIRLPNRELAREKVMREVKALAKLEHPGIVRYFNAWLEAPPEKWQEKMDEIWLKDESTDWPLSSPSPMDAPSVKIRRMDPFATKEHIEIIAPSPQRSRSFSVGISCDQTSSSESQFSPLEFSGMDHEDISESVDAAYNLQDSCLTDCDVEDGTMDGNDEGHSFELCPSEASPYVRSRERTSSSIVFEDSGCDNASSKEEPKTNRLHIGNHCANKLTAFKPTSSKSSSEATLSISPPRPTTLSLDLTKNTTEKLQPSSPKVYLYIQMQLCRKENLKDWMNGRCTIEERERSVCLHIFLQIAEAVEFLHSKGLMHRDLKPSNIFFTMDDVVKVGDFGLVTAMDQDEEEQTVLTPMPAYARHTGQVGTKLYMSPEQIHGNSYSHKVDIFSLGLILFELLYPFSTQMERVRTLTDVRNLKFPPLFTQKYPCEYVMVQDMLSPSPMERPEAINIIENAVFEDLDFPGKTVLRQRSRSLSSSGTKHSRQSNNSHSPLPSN
Sequence of PERK (Q9NZJ5 30-1116): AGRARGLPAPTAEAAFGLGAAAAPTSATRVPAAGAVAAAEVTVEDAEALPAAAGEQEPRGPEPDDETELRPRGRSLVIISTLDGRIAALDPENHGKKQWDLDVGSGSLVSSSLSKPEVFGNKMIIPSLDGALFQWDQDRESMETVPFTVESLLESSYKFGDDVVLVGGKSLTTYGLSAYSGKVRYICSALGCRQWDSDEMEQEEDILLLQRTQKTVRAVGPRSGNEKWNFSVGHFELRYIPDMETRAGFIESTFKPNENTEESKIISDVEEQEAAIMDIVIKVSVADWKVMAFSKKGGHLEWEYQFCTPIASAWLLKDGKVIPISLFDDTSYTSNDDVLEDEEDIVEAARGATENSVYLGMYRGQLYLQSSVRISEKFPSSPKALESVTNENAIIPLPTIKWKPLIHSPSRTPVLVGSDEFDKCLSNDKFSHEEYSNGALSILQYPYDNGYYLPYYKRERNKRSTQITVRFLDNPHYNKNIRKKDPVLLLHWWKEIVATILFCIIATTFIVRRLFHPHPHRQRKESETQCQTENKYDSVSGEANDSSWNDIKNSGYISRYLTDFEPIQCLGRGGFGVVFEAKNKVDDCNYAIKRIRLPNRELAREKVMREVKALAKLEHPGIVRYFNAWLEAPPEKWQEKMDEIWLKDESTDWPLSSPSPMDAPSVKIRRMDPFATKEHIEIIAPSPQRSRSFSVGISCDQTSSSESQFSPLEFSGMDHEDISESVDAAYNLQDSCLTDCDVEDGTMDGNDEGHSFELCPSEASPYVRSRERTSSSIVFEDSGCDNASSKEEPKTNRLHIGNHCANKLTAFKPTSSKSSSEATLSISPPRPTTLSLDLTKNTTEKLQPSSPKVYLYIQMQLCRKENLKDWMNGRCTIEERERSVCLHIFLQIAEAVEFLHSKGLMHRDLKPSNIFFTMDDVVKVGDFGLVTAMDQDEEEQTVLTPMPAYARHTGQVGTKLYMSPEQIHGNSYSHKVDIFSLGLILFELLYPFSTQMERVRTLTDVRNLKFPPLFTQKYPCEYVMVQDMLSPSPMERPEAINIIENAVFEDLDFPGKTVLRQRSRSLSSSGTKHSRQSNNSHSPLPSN

IC50 [1] [µM] | IC50 (PERK) [µM] | Compound
0.001 to 0.025 | 0.251 to 0.5 | Cc1cc(NC(=O)C(O)c2ccccc2)ccc1-c1cnc(N)c(C(=O)NC(C)C)c1 (single isomer, unassigned) [Example 1, 2-amino-5-(4-(2-hydroxy-2-phenylacetamido)-2-methylphenyl)-N-isopropylnicotinamide]
0.001 to 0.025 | 0.101 to 0.25 | Cc1cc(NC(=O)C(O)c2ccccc2)ccc1-c1cnc(N)c(C(=O)NC(C)C)c1 (single isomer, unassigned) [Example 2, 2-amino-5-(4-(2-hydroxy-2-phenylacetamido)-2-methylphenyl)-N-isopropylnicotinamide]
0.001 to 0.025 | 0.051 to 0.1 | CNC(=O)c1cc(-c2ccc(NC(=O)C(O)c3cc(F)cc(F)c3)cc2C)cnc1N (single isomer, unassigned) [Example 10, 2-amino-5-(4-(2-(3,5-difluorophenyl)-2-hydroxyacetamido)-2-methylphenyl)-N-methylnicotinamide]
0.501 to 1 | 1 to 2 | CNC(=O)c1cc(-c2ccc(NC(=O)C(O)c3cc(F)cc(F)c3)cc2C)cnc1N (single isomer, unassigned) [Example 11, 2-amino-5-(4-(2-(3,5-difluorophenyl)-2-hydroxyacetamido)-2-methylphenyl)-N-methylnicotinamide]
0.001 to 0.025 | 0.026 to 0.05 | CCNC(=O)c1cc(-c2ccc(NC(=O)C(O)c3cc(F)cc(F)c3)cc2C)cnc1N (single isomer, unassigned) [Example 12, 2-amino-5-(4-(2-(3,5-difluorophenyl)-2-hydroxyacetamido)-2-methylphenyl)-N-ethylnicotinamide]
0.001 to 0.025 | 0.501 to 1 | CCNC(=O)c1cc(-c2ccc(NC(=O)C(O)c3cc(F)cc(F)c3)cc2C)cnc1N (single isomer, unassigned) [Example 13, 2-amino-5-(4-(2-(3,5-difluorophenyl)-2-hydroxyacetamido)-2-methylphenyl)-N-ethylnicotinamide]
0.026 to 0.05 | 0.101 to 0.25 | Cc1cc(NC(=O)C(O)c2cc(F)cc(F)c2)ccc1-c1cnc(N)c(C(=O)NC(C)(C)C)c1 (single isomer, unassigned) [Example 16, 2-amino-N-(tert-butyl)-5-(4-(2-(3,5-difluorophenyl)-2-hydroxyacetamido)-2-methylphenyl) nicotinamide]
0.251 to 0.5 | 0.501 to 1 | Cc1cc(NC(=O)C(O)c2cc(F)cc(F)c2)ccc1-c1cnc(N)c(C(=O)NC(C)(C)C)c1 (single isomer, unassigned) [Example 17, 2-amino-N-(tert-butyl)-5-(4-(2-(3,5-difluorophenyl)-2-hydroxyacetamido)-2-methylphenyl) nicotinamide]
0.001 to 0.025 | 0.026 to 0.05 | Cc1cc(NC(=O)C(O)c2cc(F)cc(F)c2)ccc1-c1cnc(N)c(C(=O)NCC(F)(F)F)c1 (single isomer, unassigned) [Example 18, 2-amino-5-(4-(2-(3,5-difluorophenyl)-2-hydroxyacetamido)-2-methylphenyl)-N-(2,2,2-trifluoroethyl) nicotinamide]
0.101 to 0.25 | 0.101 to 0.25 | Cc1cc(NC(=O)C(O)c2cc(F)cc(F)c2)ccc1-c1cnc(N)c(C(=O)NCC(F)(F)F)c1 (single isomer, unassigned) [Example 19, 2-amino-5-(4-(2-(3,5-difluorophenyl)-2-hydroxyacetamido)-2-methylphenyl)-N-(2,2,2-trifluoroethyl) nicotinamide]
0.001 to 0.025 | 0.001 to 0.025 | CC(C)NC(=O)c1cc(-c2ccc(NC(=O)C(O)c3cc(F)cc(F)c3)cc2Cl)cnc1N (single isomer, unassigned) [Example 34]
0.051 to 0.1 | 0.101 to 0.25 | CC(C)NC(=O)c1cc(-c2ccc(NC(=O)C(O)c3cc(F)cc(F)c3)cc2Cl)cnc1N (single isomer, unassigned) [Example 35]
0.001 to 0.025 | 0.001 to 0.025 | CCc1cc(NC(=O)C(O)c2cc(F)cc(F)c2)ccc1-c1cnc(N)c(C(=O)NC(C)C)c1 (single isomer, unassigned) [Example 38, 2-amino-5-(4-(2-(3,5-difluorophenyl)-2-hydroxyacetamido)-2-ethylphenyl)-N-isopropylnicotinamide]
0.101 to 0.25 | 0.101 to 0.25 | CCc1cc(NC(=O)C(O)c2cc(F)cc(F)c2)ccc1-c1cnc(N)c(C(=O)NC(C)C)c1 (single isomer, unassigned) [Example 39, 2-amino-5-(4-(2-(3,5-difluorophenyl)-2-hydroxyacetamido)-2-ethylpehnyl)-N-isopropylnicotinamide]
0.001 to 0.025 | 0.026 to 0.05 | Cc1cc(NC(=O)C(O)c2cc(F)cc(F)c2)ccc1-c1cnc(N)c(C(=O)OC(C)C)c1 (single isomer, unassigned) [Example 42, isopropyl 2-amino-5-(4-(2-(3,5-difluorophenyl)-2-hydroxyacetamido)-2-methylphenyl) nicotinate]
0.051 to 0.1 | 0.251 to 0.5 | Cc1cc(NC(=O)C(O)c2cc(F)cc(F)c2)ccc1-c1cnc(N)c(C(=O)OC(C)C)c1 (single isomer, unassigned) [Example 43, isopropyl 2-amino-5-(4-(2-(3,5-difluorophenyl)-2-hydroxyacetamido)-2-methylphenyl) nicotinate]
0.001 to 0.025 | 0.001 to 0.025 | CCc1cccc(C(O)C(=O)Nc2ccc(-c3cnc(N)c(C(=O)NC(C)C)c3)c(C)c2)c1 (single isomer, unassigned) [Example 72, 2-amino-5-(4-(2-(3-ethylphenyl)-2-hydroxyacetamido)-2-methylphenyl)-N-isopropylnicotinamide]
0.101 to 0.25 | 0.251 to 0.5 | CCc1cccc(C(O)C(=O)Nc2ccc(-c3cnc(N)c(C(=O)NC(C)C)c3)c(C)c2)c1 (single isomer, unassigned) [Example 73, 2-amino-5-(4-(2-(3-ethylphenyl)-2-hydroxyacetamido)-2-methylphenyl)-N-isopropylnicotinamide]
0.001 to 0.025 | 0.001 to 0.025 | CCc1cc(NC(=O)C(O)c2cccc(Cl)c2)ccc1-c1cnc(N)c(C(=O)NC(C)C)c1 (single isomer, unassigned) [Example 108, 2-amino-5-(4-(2-(3-chlorophenyl)-2-hydroxyacetamido)-2-ethylphenyl)-N-isopropylnicotinamide]
0.051 to 0.1 | 0.101 to 0.25 | CCc1cc(NC(=O)C(O)c2cccc(Cl)c2)ccc1-c1cnc(N)c(C(=O)NC(C)C)c1 (single isomer, unassigned) [Example 109, 2-amino-5-(4-(2-(3-chlorophenyl)-2-hydroxyacetamido)-2-ethylphenyl)-N-isopropylnicotinamide]
0.001 to 0.025 | 0.001 to 0.025 | CCc1cc(NC(=O)C(O)c2cc(F)cc(F)c2)ccc1-c1cnc(N)c(C(=O)NCC(F)(F)F)n1 (single isomer, unassigned) [Example 154, 3-amino-6-(4-(2-(3,5-difluorophenyl)-2-hydroxyacetamido)-2-ethylphenyl)-N-(2,2,2-trifluoroethyl) pyrazine-2-carboxamide]
0.101 to 0.25 | 0.101 to 0.25 | CCc1cc(NC(=O)C(O)c2cc(F)cc(F)c2)ccc1-c1cnc(N)c(C(=O)NCC(F)(F)F)n1 (single isomer, unassigned) [Example 155, 3-amino-6-(4-(2-(3,5-difluorophenyl)-2-hydroxyacetamido)-2-ethylphenyl)-N-(2,2,2-trifluoroethyl) pyrazine-2-carboxamide]
0.101 to 0.25 | 2 to 3 | Cc1cc(NC(=O)C(C)(O)c2ccccc2)ccc1-c1cnc(N)c(C(=O)NC(C)C)c1 (stereo not shown) [Example 3, 2-amino-5-(4-(2-hydroxy-2-phenylpropanamido)-2-methylphenyl)-N-isopropylnicotinamide]
0.101 to 0.25 | 3 to 4 | Cc1cc(NC(=O)C(C)(O)c2ccccc2)ccc1-c1cnc(N)c(C(=O)NC(C)C)c1 (stereo not shown) [Example 4, 2-amino-5-(4-(2-hydroxy-2-phenylpropanamido)-2-methylphenyl)-N-isopropylnicotinamide]
1 to 2 | 3 to 4 | COC(C(=O)Nc1ccc(-c2cnc(N)c(C(=O)NC(C)C)c2)c(C)c1)c1ccccc1 (stereo not shown) [Example 5, 2-amino-N-isopropyl-5-(4-(2-methoxy-2-phenylacetamido)-2-methylphenyl) nicotinamide]
1 to 2 | 3 to 4 | Cc1cc(NC(=O)C(N)c2ccccc2)ccc1-c1cnc(N)c(C(=O)NC(C)C)c1 (stereo not shown) [Example 6, 2-amino-5-(4-(2-amino-2-phenylacetamido)-2-methylphenyl)-N-isopropyl-nicotinamide]
